The values below come from patent US20040186129A1, “2-Aroylimidazole compounds for treating cancer” (priority 2001, published 2004).

A short description of data set [1]: Body weight of treated tumor bearing mice (signs of toxicity). Type of data set: in vivo, mouse. Here is the method: (§1) The in vivo anti-cancer efficacy of Compound (2) was assessed in tumor bearing mice using a tumor growth inhibition assay. Human breast tumor (MDA-435) cells were implanted by injection of a tumor cell suspension subcutaneously in the flank of a nude mouse. Treatment of the tumor with an experimental compound began after the tumor had been established (volume was approximately 100 mm^3). The animal then began a multiple injection schedule where the compound was administered orally. Tumors were measured two times a week. During the course of this assay, animals were monitored daily for signs of toxicity including body weight loss.
A dosing solution for compound administration was prepared by dissolving 1 gram of Compound (2) in 10 ml of acetone (HPLC grade), and sonicated for 5 minutes using 550 Sonic Dismembrator. 1.2 equivalents of 1 N HCl aqueous solution were added to the acetone solution which was then sonicated for 5 minutes. All solvent was then evaporated from the solution by using Speed Vac Plus SC 250 DDA over night. The dried powder was used for preparing the dosing solution of Compound (2). 1% Methyl cellulose (MC) vehicle was prepared by dissolving 1.0 gram of Methyl cellulose, 400 cps, U.S.P. (Spectrum Laboratory Products, Cat. # ME136) in 100 mL of H2O. This mixture was then stirred for 12 hours at room temperature to produce a clear 1% MC solution. […]

For another data set, the system named is MES-SA/DX5. Briefly: In vitro anti-cancer activity against multi-drug resistant cancer cells, MTS assay. The data set is classed as cell-based. As to conditions: Homo sapiens. The protocol:
(§2) The cell lines were maintained in RPMI1640(GIBCO) supplemented with 10% FCS, 100 units/ml penicillin, 100 ug/ml streptomycin, and 2 mM L-glutamine. The cells were split every third day and diluted to a concentration of 2×10^5 cells/ml one day before experiment. All experiments were performed on exponentially growing cell culture. Cell densities were 2.5×10^4 cells/ml in all experiment.
(§3) A stock solution of Compound (1) was prepared by dissolving the compound at a concentration of 1 mM in 100% DMSO. Final concentrations were obtained by diluting the stock solution directly into the tissue culture medium. Cells were incubated with varying concentrations of the compounds for 72 hours and the IC50 was determined by MTS (i.e. […]) assay. IC50 stands for the concentration of compound required to inhibit 50% tumor cell growth.
(§4) In vitro activity was determined in two MDR (Multi Drug Resistant) human cancer cell lines. HL-60/TX1000 was isolated in vitro by subculturing HL-60 in progressively higher concentration of Taxol. HL-60/TX1000 cells over-express mdr-1 mRNA and p-glycoprotein, as determined by western blot and immunofluorescence labeling with antiPGP antibodies. The cell is cross-resistant to Taxol, Vincristine, Adriamycin, Etoposide and Doxorubicin. MES-SA/Dx5 was established in the presence of increasing concentrations of Doxorubicin. […] MES-SA/Dx5 was purchased from ATCC.
(§5) The procedure for culturing the cells and assaying cancer cell growth inhibition were as described in Example 12.
(§6) The protocol described in Examples 12-13 was used to assay inhibition by Compound (2)-(12) on the growth of the multidrug resistant cancer cell line MES-SA/DX5 and HL-60/TX1000.
(In general: Formazan colour is commonly taken as a measure of viable cells.)

For a further data set, the system named is HL-60/TX1000. The data set is described as above. As to conditions: Homo sapiens, HL60/TX1000. Type of data set: cell-based. The protocol:
as §2, §3, §4, §5, §6

The test system of data set [2] is human breast tumor (MDA435). Briefly: Tumor growth inhibition assay, human breast tumor (MDA435) xenograft model. The data set is classed as in vivo, mouse. The protocol:
as §1
A supplemented media was prepared from 50% DMEM/Dulbecco Modified Eagle Medium (High Glucose), 50% RPMI 1640, 10% FBS/Fetal Bovine Serum (Hybridoma Tested; Sterile Filtered), 1% L-Glutamine, 1% Penicillin-Streptomycin, 1% MEM Sodium Pyruvate, 1% MEM Non-Essential Amino Acids. […]
The flask was washed with 10 ml of sterile room temperature phosphate buffered saline (PBS). […] The supernatant was aspirated and the cell pellet was resuspended in 10 ml of supplemented media and the cells were counted. […]
The above procedure for trypsinizing and centrifuging the cells were followed. The supernatant was aspirated and the cell pellet was resuspended in 10 ml of sterile PBS and the cells were counted. […]
(In general: In xenograft studies the graft and the host belong to different species.)

In data set [3] the test system is MDR cell lines (MES-SA/DX5, HL-60/TX1000). Briefly: In vitro anti-cancer activity, summary over both MDR cell lines. Type of data set: cell-based, human. The note with it: Homo sapiens, MES-SA/DX5 and HL-60/TX1000, text summary of Tables 2 and 3; read-out: IC50 against the MDR cell lines. The protocol: as §2, §3
In vitro activity was determined in two MDR (Multi Drug Resistant) human cancer cell lines. HL-60/TX1000 was isolated in vitro by subculturing HL-60 in progressively higher concentration of Taxol. HL-60/TX1000 cells over-express mdr-1 mRNA and p-glycoprotein, as determined by western blot and immunofluorescence labeling with antiPGP antibodies. The cell is cross-resistant to Taxol, Vincristine, Adriamycin, Etoposide and Doxorubicin. […]

The mark [4] stands for this setting: MES-SA/DX5, Table 3, read-out: IC50 (uM) MES-SA/DX5.
The mark [5] stands for this setting: HL-60/TX1000, Table 3, read-out: IC50 (uM) HL-60/TX1000.
The mark [6] stands for this setting: MES-SA/Dx5, MES-SA/DX-5, Table 2, read-out: IC50.
The mark [7] stands for this setting: HL-60/TX1000, Table 2, read-out: IC50.

Each structure is given as a SMILES string. Read-outs that look alike come from different tables or passages of the source.

Regarding `N#Cc1ccc(Cn2cc(C(=O)c3nc4cnccc4[nH]3)c3ccccc32)cc1` [Compound 2], in data set [1] (mice treated with Compound (2)), the “change in body weight” value was “Little or no change in body weight”. The loss of weight result in data set [1] (nude mice, 25 mg/kg orally, 3 times a week for 3 weeks) is recorded as “less than 5%”. Further, the IC50 in the data set with MES-SA/DX5 (setting [4]) and in the data set on HL-60/TX1000 (setting [5]) was 0.05 µM each time. The tumor growth inhibition entry in data set [2] (MDA435 in nude mice, 25 mg/kg orally, 3 times a week for 3 weeks) was “significantly inhibits tumor growth”. In data set [2] (MDA435 tumors in nude mice, administered orally), the “reduction of the volume of tumors” value is listed as “greater than 50%”.
Turning to `O=C(c1nc2cnccc2[nH]1)c1cn(Cc2ccc(Cl)c(Cl)c2)c2ccccc12` [Compound 3], the values for the IC50 in the data set on MES-SA/DX5 (setting [4]) and in the data set with HL-60/TX1000 (setting [5]) were 0.05 µM and 0.04 µM, respectively.
Regarding `Cc1ccc(Cn2cc(C(=O)c3nc4cnccc4[nH]3)c3ccccc32)cc1` [Compound 4], the IC50 in the data set with MES-SA/DX5 (setting [4]) and in the data set with HL-60/TX1000 (setting [5]) was 0.05 µM throughout.
For `Cc1cccc2c(C(=O)c3nc4ccncc4[nH]3)cn(Cc3ccc(Cl)cc3)c12` [Compound 5], the IC50 in the data set with MES-SA/DX5 (setting [4]) amounted to 0.5 µM; in the data set with HL-60/TX1000 (setting [5]), 0.1 µM.
Consider `O=C(c1nc2ccncc2[nH]1)c1cn(Cc2ccc(Cl)cc2)c2cc(F)ccc12` [Compound 6], for which the IC50 in the data set with MES-SA/DX5 (setting [4]) and with HL-60/TX1000 (setting [5]) was 0.05 µM throughout.
Take `O=C(c1nc2ccncc2[nH]1)c1cc(Cc2ccc(Cl)cc2)n2ccccc12` [Compound 7]: the IC50 with MES-SA/DX5 (setting [4]) turned out to be 0.5 µM; with HL-60/TX1000 (setting [5]), 0.05 µM.
Consider `COC(=O)c1cnc(C(=O)c2cn(Cc3ccc(Cl)cc3)c3ccccc23)[nH]1` [Compound 8, 2-[1-(4-chloro-benzyl)-1H-indole-3-carbonyl]-3H-imidazole-4-carboxylic acid methyl ester], for which the IC50 in the data set with MES-SA/DX5 (setting [4]) was found to be 0.1 µM; in the data set with HL-60/TX1000 (setting [5]), 0.05 µM.
`O=C(c1nc(-c2ccccn2)c[nH]1)c1cn(Cc2ccc(Cl)cc2)c2ccccc12` [Compound 9, [1-(4-Chloro-benzyl)-1H-indol-3-yl]-(4-pyridin-2-yl-1H-imidazol-2-yl)-methanone]: the IC50 in the data set on MES-SA/DX5 (setting [4]) and in the data set on HL-60/TX1000 (setting [5]) was 0.5 µM throughout.
As to `O=C(c1cccnc1)c1c[nH]c(C(=O)c2cn(Cc3ccc(Cl)cc3)c3ccccc23)n1` [Compound 10, [1-(4-Chlorobenzyl)-1H-indol-3-yl]-[4-(pyridine-3-carbonyl)-1H-imidazol-2-yl]methanone], the IC50 in the data set on MES-SA/DX5 (setting [4]) and in the data set with HL-60/TX1000 (setting [5]) was 0.5 µM in each case.
Turning to `CCC(=O)c1c[nH]c(C(=O)c2cn(Cc3ccc(Cl)cc3)c3ccccc23)n1` [Compound 11], the IC50 with MES-SA/DX5 (setting [4]) and in the data set with HL-60/TX1000 (setting [5]) was 0.5 µM throughout.
For `CC1(C)COC(c2cnc(C(=O)c3cn(Cc4ccc(Cl)cc4)c4ccccc34)[nH]2)=N1` [Compound 12, [1-(4-chlorobenzyl)-1H-indol-3-yl]-[5-(4,4-dimethyl-4,5-dihydro-oxazol-2-yl)-1H-imidazo 1-2-yl]-methanone], the IC50 in the data set with MES-SA/DX5 (setting [4]) and with HL-60/TX1000 (setting [5]) was 0.5 µM each time.
Regarding `CC(=O)O[C@H]1C(=O)[C@@]2(C)[C@H]([C@H](OC(=O)c3ccccc3)[C@]3(O)C[C@H](OC(=O)[C@H](O)[C@@H](NC(=O)c4ccccc4)c4ccccc4)C(C)=C1C3(C)C)[C@]1(OC(C)=O)CO[C@@H]1C[C@@H]2O` [Taxol, reference compound], the IC50 with MES-SA/DX5 (setting [6]) and in the data set with HL-60/TX1000 (setting [7]) was 5 µM throughout.
As for `CC[C@]1(O)C[C@H]2CN(CCc3c([nH]c4ccccc34)[C@@](C(=O)OC)(c3cc4c(cc3OC)N(C=O)[C@H]3[C@@](O)(C(=O)OC)[C@H](OC(C)=O)[C@]5(CC)C=CCN6CC[C@]43[C@@H]65)C2)C1` [Vincristine, reference compound], the IC50 in data set [3] was 1000 to 5000 nM; with MES-SA/DX5 (setting [6]) it was 1 µM; in the data set on HL-60/TX1000 (setting [7]), 5 µM.
